Laboratory results published in patent publication US6737383B1, “Herbicidal oxadiazolidines” (priority 1999, dated 2004).

How the values were obtained:
sugar beet = assay: Test B pre/postemergence sugar beet; format: in vivo, Beta vulgaris
Outline: (§1)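 Herbicidal effect was estimated by eye on a ten-point control scale after plants spent twelve to sixteen days in a greenhouse following soil or foliar treatment. Foliar sprays targeted plants at one to four leaves; all doses were formulated in a non-phytotoxic solvent with surfactant.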

corn = assay: Test B pre/postemergence corn; format: in vivo, Zea mays
Outline: as §1

velvetleaf = assay: Test B pre/postemergence velvetleaf; format: in vivo, Abutilon theophrasti
Outline: as §1

bamyardgrass = assay: Test B flood test barnyardgrass; format: in vivo, Echinochloa crus-galli
Outline: (§2)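 Flood test on plants grown to the 2-leaf stage; treated plants kept in greenhouse twelve to sixteen days, then visually rated against controls on a 0 (no effect) to 10 (complete control) scale.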

blackgrass = assay: Test B pre/postemergence blackgrass; format: in vivo, Alopecurus myosuroides
Outline: as §1

surinam grass = assay: Test B pre/postemergence surinam grass; format: in vivo, Brachiaria decumbens
Outline: as §1

giant foxtail = assay: Test B pre/postemergence giant foxtail; format: in vivo, Setaria faberii
Outline: as §1

soybean = assay: Test B pre/postemergence soybean; format: in vivo, Glycine max
Outline: as §1

rape = assay: Test B pre/postemergence rape; format: in vivo, Brassica napus
Outline: as §1

pigweed = assay: Test B pre/postemergence pigweed; format: in vivo, Amaranthus retroflexus
Outline: as §1

bedstraw = assay: Test B pre/postemergence bedstraw; format: in vivo, Galium aparine
Outline: as §1

wheat = assay: Test B pre/postemergence wheat; format: in vivo, Triticum aestivum
Outline: as §1

smallflower flatsedge = assay: Test B flood test smallflower flatsedge; format: in vivo, Cyperus difformis
Outline: as §2

crabgrass = assay: Test B pre/postemergence crabgrass; format: in vivo, Digitaria sanguinalis
Outline: as §1

morningglory = assay: Test B pre/postemergence morningglory; format: in vivo, Ipomoea hederacea
Outline: as §1

cocklebur = assay: Test B pre/postemergence cocklebur; format: in vivo, Xanthium strumarium
Outline: as §1

purple nutsedge = assay: Test B pre/postemergence purple nutsedge; format: in vivo, Cyperus rotundus; settings: Postemergence
Outline: as §1

duck salad = assay: Test B flood test duck salad; format: in vivo, Heteranthera limosa
Outline: as §2

wild oat = assay: Test B pre/postemergence wild oat; format: in vivo, Avena fatua
Outline: as §1

rice = assay: Test B flood test rice; format: in vivo, Oryza sativa
Outline: as §2

[1] = Preemergence, Rate 62 g/ha, scale of 0 to 10 where 0 is no effect and 10 is complete control
[2] = Preemergence, Rate 250 g/ha, scale of 0 to 10 where 0 is no effect and 10 is complete control
[3] = Preemergence, Rate 500 g/ha, scale of 0 to 10 where 0 is no effect and 10 is complete control
[4] = Rate 125 g/ha, Preemergence, scale of 0 to 10 where 0 is no effect and 10 is complete control
[5] = Rate 500 g/ha, Postemergence, scale 0 to 10, 0 no effect, 10 complete control
[6] = Rate 62 g/ha, Postemergence, scale of 0 to 10 where 0 is no effect and 10 is complete control
[7] = Rate 125 g/ha, Postemergence, scale 0 to 10
[8] = Rate 62 g/ha, headed Pre-emergence (flood test species), scale 0 to 10 (0 no effect, 10 complete control)
[9] = Rate 125 g/ha, Pre-emergence, flood test species, scale 0 to 10 where 0 is no effect and 10 is complete control
[10] = Rate 250 g/ha, Pre-emergence, flood-test species, scale 0 to 10, 0 is no effect, 10 is complete control
[11] = Rate 500 g/ha, Pre-emergence, flood test species, scale 0 to 10 (0 no effect, 10 complete control)

## CC(C)N(C(=O)n1oc(=O)n(CC2CC2)c1=O)c1ccc(F)cc1 [Compound 251]
Sugar beet; [1]
  Sugarbeets plant response rating: 6
Sugar beet; [2]
  Sugarbeets plant response rating: 10
Sugar beet; [3]
  Plant response rating, Sugarbeets: 10
Sugar beet; [4]
  Sugarbeets plant response rating: 10
Sugar beet; [5]
  Sugarbeets plant response rating: 2
corn; [1]
  Corn plant response rating: 0
corn; [2]
  Corn plant response rating: 0
corn; [3]
  Plant response rating, Corn: 5
corn; [6]
  Corn plant response rating: 0
corn; [7]
  Corn plant response rating: 0
corn; [4]
  Corn plant response rating: 0
corn; Rate 250 g/ha, Postemergence
  Plant response rating (0 to 10; 0 is no effect, 10 is complete control), Corn: 0
corn; [5]
  Corn plant response rating: 0
velvetleaf; [1]
  Velvetleaf plant response rating: 0
velvetleaf; [2]
  Velvetleaf plant response rating: 5
velvetleaf; [3]
  Plant response rating, Velvetleaf: 7
velvetleaf; [4]
  Velvetleaf plant response rating: 4
velvetleaf; [5]
  Velvetleaf plant response rating: 0
bamyardgrass; [8]
  Barnyardgrass plant response rating: 0
bamyardgrass; [9]
  Barnyardgrass plant response rating: 0
bamyardgrass; [10]
  Barnyardgrass plant response rating: 0
bamyardgrass; [11]
  Barnyardgrass plant response rating: 0
blackgrass; [1]
  Blackgrass plant response rating: 6
blackgrass; [2]
  Blackgrass plant response rating: 9
blackgrass; [3]
  Plant response rating, Blackgrass: 10
blackgrass; [6]
  Blackgrass plant response rating: 0
blackgrass; [7]
  Blackgrass plant response rating: 4
blackgrass; [4]
  Blackgrass plant response rating: 8
blackgrass; Rate 250 g/ha, Postemergence
  Plant response rating (0 to 10; 0 is no effect, 10 is complete control), Blackgrass: 8
blackgrass; [5]
  Blackgrass plant response rating: 8
Surinam grass; [1]
  B. signalgrass plant response rating: 2
Surinam grass; [2]
  B. signalgrass plant response rating: 7
Surinam grass; [3]
  Plant response rating, B. signalgrass: 9
Surinam grass; [6]
  B. signalgrass plant response rating: 0
Surinam grass; Rate 125 g/ha, Postemergence, scale 0 (no effect) to 10 (complete control)
  B. signalgrass plant response rating: 0
Surinam grass; [4]
  B. signalgrass plant response rating: 3
Surinam grass; Rate 250 g/ha, Postemergence
  Plant response rating (0 to 10; 0 is no effect, 10 is complete control), B. signalgrass: 0
Surinam grass; [5]
  B. signalgrass plant response rating: 2
Giant foxtail; [1]
  Giant foxtail plant response rating: 8
Giant foxtail; [2]
  Giant foxtail plant response rating: 10
Giant foxtail; [3]
  Plant response rating, Giant foxtail: 10
Giant foxtail; [4]
  Giant foxtail plant response rating: 10
Giant foxtail; Rate 250 g/ha, Postemergence
  Plant response rating (0 to 10; 0 is no effect, 10 is complete control), Giant foxtail: 7
Giant foxtail; [5]
  Giant foxtail plant response rating: 8
soybean; [1]
  Soybean plant response rating: 0
soybean; [2]
  Soybean plant response rating: 0
soybean; [3]
  Plant response rating, Soybean: 0
soybean; [4]
  Soybean plant response rating: 0
soybean; [5]
  Soybean plant response rating: 6
rape; [1]
  Rape plant response rating: 0
rape; [2]
  Rape plant response rating: 9
rape; [3]
  Plant response rating, Rape: 10
rape; [4]
  Rape plant response rating: 9
rape; Rate 250 g/ha, Postemergence
  Plant response rating (0 to 10; 0 is no effect, 10 is complete control), Rape: 0
rape; [5]
  Rape plant response rating: 0
pigweed; [1]
  Redroot pigweed plant response rating: 0
pigweed; [2]
  Redroot pigweed plant response rating: 10
pigweed; [3]
  Plant response rating, Redroot pigweed: 10
pigweed; [4]
  Redroot pigweed plant response rating: 5
pigweed; Rate 250 g/ha, Postemergence
  Plant response rating (0 to 10; 0 is no effect, 10 is complete control), Redroot pigweed: 2
pigweed; [5]
  Redroot pigweed plant response rating: 4
bedstraw; [1]
  Bedstraw plant response rating: 0
bedstraw; [2]
  Bedstraw plant response rating: 10
bedstraw; [3]
  Plant response rating, Bedstraw: 10
bedstraw; [6]
  Bedstraw plant response rating: 2
bedstraw; [7]
  Bedstraw plant response rating: 6
bedstraw; [4]
  Bedstraw plant response rating: 0
bedstraw; Rate 250 g/ha, Postemergence
  Plant response rating (0 to 10; 0 is no effect, 10 is complete control), Bedstraw: 7
bedstraw; [5]
  Bedstraw plant response rating: 9
wheat; [1]
  Wheat plant response rating: 0
wheat; [2]
  Wheat plant response rating: 0
wheat; [3]
  Plant response rating, Wheat: 8
wheat; [4]
  Wheat plant response rating: 0
wheat; [5]
  Wheat plant response rating: 2
Smallflower flatsedge; [8]
  S. Flatsedge plant response rating: 0
Smallflower flatsedge; [9]
  S. Flatsedge plant response rating: 0
Smallflower flatsedge; [10]
  S. Flatsedge plant response rating: 0
Smallflower flatsedge; [11]
  S. Flatsedge plant response rating: 0
crabgrass; [1]
  Crabgrass plant response rating: 3
crabgrass; [2]
  Crabgrass plant response rating: 9
crabgrass; [3]
  Plant response rating, Crabgrass: 10
crabgrass; [4]
  Crabgrass plant response rating: 7
crabgrass; Rate 250 g/ha, Postemergence
  Plant response rating (0 to 10; 0 is no effect, 10 is complete control), Crabgrass: 6
crabgrass; [5]
  Crabgrass plant response rating: 9
morningglory; [1]
  Morningglory plant response rating: 0
morningglory; [2]
  Morningglory plant response rating: 0
morningglory; [3]
  Plant response rating, Morningglory: 4
morningglory; [4]
  Morningglory plant response rating: 0
morningglory; Rate 250 g/ha, Postemergence
  Plant response rating (0 to 10; 0 is no effect, 10 is complete control), Morningglory: 7
morningglory; [5]
  Morningglory plant response rating: 9
cocklebur; [1]
  Cocklebur plant response rating: 0
cocklebur; [2]
  Cocklebur plant response rating: 0
cocklebur; [3]
  Plant response rating, Cocklebur: 0
cocklebur; [6]
  Cocklebur plant response rating: 0
cocklebur; [7]
  Cocklebur plant response rating: 0
cocklebur; [4]
  Cocklebur plant response rating: 0
cocklebur; Rate 250 g/ha, Postemergence
  Plant response rating (0 to 10; 0 is no effect, 10 is complete control), Cocklebur: 0
cocklebur; [5]
  Cocklebur plant response rating: 3
Purple nutsedge; Rate 250 g/ha
  Plant response rating (0 to 10; 0 is no effect, 10 is complete control), Nutsedge: 0
Purple nutsedge; Rate 500 g/ha, scale 0 to 10, 0 no effect, 10 complete control
  Nutsedge plant response rating: 0
Duck salad; [8]
  Ducksalad plant response rating: 0
Duck salad; [9]
  Ducksalad plant response rating: 0
Duck salad; [10]
  Ducksalad plant response rating: 0
Duck salad; [11]
  Ducksalad plant response rating: 0
Wild oat; [1]
  Wild oats plant response rating: 0
Wild oat; [2]
  Wild oats plant response rating: 8
Wild oat; [3]
  Plant response rating, Wild oats: 9
Wild oat; [4]
  Wild oats plant response rating: 6
Wild oat; [5]
  Wild oats plant response rating: 0
rice; [8]
  Rice plant response rating: 0
rice; [9]
  Rice plant response rating: 0
rice; [10]
  Rice plant response rating: 0
rice; [11]
  Rice plant response rating: 0
